Read-outs that look alike come from different tables or passages of the source.
How the values were obtained:
MCT8 [1] = biological target: T1, MCT8 (Rattus norvegicus, UniProt Q8K1P8); assay: Inhibition of uptake of labeled T4 and T3 in MCT8 cRNA-injected oocytes by putative competitors; assay type: cell-based; settings: labeled T3 10 nm, MCT8 cRNA-injected oocytes
T1 construct: the stop codon of MCT8 was removed by performing PCR using the same sense primer as above; expressed in transfected cells; host or cells: Xenopus laevis oocytes injected with cRNA transcribed from pGEM-HeJuel
T1 sequence (Q8K1P8 whole entry I169T/T171I/S199P/G227D): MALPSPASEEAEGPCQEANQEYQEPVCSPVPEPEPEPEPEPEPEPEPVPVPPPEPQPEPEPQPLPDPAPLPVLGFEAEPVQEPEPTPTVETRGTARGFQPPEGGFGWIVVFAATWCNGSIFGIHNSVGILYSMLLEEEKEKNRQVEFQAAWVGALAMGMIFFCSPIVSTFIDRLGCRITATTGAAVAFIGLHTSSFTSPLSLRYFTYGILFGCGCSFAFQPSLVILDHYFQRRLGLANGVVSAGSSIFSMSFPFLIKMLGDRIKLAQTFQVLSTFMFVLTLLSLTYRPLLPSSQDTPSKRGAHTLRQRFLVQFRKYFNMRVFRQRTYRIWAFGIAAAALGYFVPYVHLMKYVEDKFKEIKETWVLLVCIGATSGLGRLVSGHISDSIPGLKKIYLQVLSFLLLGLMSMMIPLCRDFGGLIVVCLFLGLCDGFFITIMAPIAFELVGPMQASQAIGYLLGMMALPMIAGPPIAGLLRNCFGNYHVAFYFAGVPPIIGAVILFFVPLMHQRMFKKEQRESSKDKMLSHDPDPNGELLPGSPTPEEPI
Experimental: (§1) Oocytes were isolated and allowed to recover overnight at 18 C in modified Barth's solution containing 20 IU/ml penicillin and 20 gg/ml streptomycin as described before (23). […] Uninjected or water injected oocytes were used as controls.
(§2) Transport measurements in oocytes—Oocytes were washed and preincubated at 18 C in standard uptake solution (100 mM NaCl, 2 mM KCl, 1 mM CaCl2, 1 mM MgCl2, 10 mM HEPES, and 10 mM Tris, pH 7.5). […] The possible Na^+ dependence of transport was tested by preincubation and incubation in Na^+-free uptake solution in which NaCl was replaced by choline chloride. The influence of the temperature on the uptake rate was tested by the incubation of oocytes with uptake solutions at different temperatures between 4 and 37 C. […] The incubation was stopped by aspiration of the medium, and oocytes were washed 4 times at 4 C with standard uptake solution containing 0.1% BSA.

rat oatp1 = biological target: T2, rat oatp1 (Rattus norvegicus, UniProt P46720); settings: literature (10); read-out: Apparent Km values for rat oatp1; cited from earlier work
T2 sequence (P46720 1-670): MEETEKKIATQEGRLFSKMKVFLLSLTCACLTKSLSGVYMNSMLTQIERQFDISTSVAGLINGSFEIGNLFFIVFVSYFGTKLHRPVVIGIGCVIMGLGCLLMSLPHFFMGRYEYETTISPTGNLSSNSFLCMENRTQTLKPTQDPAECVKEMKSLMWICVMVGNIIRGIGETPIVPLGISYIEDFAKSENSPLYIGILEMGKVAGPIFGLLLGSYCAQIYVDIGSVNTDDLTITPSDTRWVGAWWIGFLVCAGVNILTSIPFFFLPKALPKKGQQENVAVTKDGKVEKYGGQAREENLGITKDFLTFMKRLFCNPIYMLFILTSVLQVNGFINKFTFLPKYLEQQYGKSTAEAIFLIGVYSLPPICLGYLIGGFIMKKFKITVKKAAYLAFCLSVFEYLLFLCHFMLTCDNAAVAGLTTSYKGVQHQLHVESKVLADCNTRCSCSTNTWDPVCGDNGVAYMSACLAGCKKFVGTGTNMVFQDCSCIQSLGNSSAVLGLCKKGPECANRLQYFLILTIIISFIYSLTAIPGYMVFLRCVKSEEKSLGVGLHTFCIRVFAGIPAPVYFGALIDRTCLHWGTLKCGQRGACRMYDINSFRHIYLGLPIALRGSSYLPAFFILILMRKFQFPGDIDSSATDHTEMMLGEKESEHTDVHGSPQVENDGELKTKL

MCT8 [2] = biological target: T3, MCT8 (Rattus norvegicus, UniProt Q8K1P8, G227D/I169T/S199P/T171I); assay: Inhibition of uptake of labeled T4 and T3 in MCT8 cRNA-injected oocytes by putative competitors; assay type: cell-based; design: the stop codon of MCT8 was removed by performing PCR using the same sense primer as above; expressed in transfected cells; host or cells: Xenopus laevis oocytes injected with cRNA transcribed from pGEM-HeJuel; settings: for Inhibition of labeled T4 and T3 uptake by MCT8 (in words): unlabeled competitor, taurocholate and probenecid data not shown
T3 sequence (Q8K1P8 whole entry I169T/T171I/S199P/G227D): as the sequence (Q8K1P8 whole entry I169T/T171I/S199P/G227D) above
Experimental: as §1, §2

MCT8 [3] = biological target: T3, MCT8; assay: Transport (uptake) of radioactive ligands by MCT8 expressed in X. laevis oocytes; assay type: cell-based; design: the stop codon of MCT8 was removed by performing PCR using the same sense primer as above; expressed in transfected cells; host or cells: Xenopus laevis oocytes injected with cRNA transcribed from pGEM-HeJuel; settings: 10 nM iodothyronines or amino acids; MCT8 cRNA-injected vs uninjected oocytes
Experimental: Xenopus oocytes were isolated and injected with 4.6 ng rat MCTS cRNA. After 3 days, groups of 10 injected or uninjected oocytes were incubated for 60 mm at 25 C with 10 nM radioactive iodothyronines in 0.1 ml medium. Uptake of iodothyronines was determined as previously described (18).
as §1
Transport measurements in oocytes—Oocytes were washed and preincubated at 18 C in standard uptake solution (100 mM NaCl, 2 mM KCl, 1 mM CaCl2, 1 mM MgCl2, 10 mM HEPES, and 10 mM Tris, pH 7.5). Usually, transport was tested by incubation of groups of 5-10 oocytes for 2-60 mm at 25 C with 10 nM [1251]iodothyronines or 10 μM [3H]amino acids in 0.1 ml standard uptake solution. The possible Na^+ dependence of transport was tested by preincubation and incubation in Na^+-free uptake solution in which NaCl was replaced by choline chloride. The influence of the temperature on the uptake rate was tested by the incubation of oocytes with uptake solutions at different temperatures between 4 and 37 C. […] The incubation was stopped by aspiration of the medium, and oocytes were washed 4 times at 4 C with standard uptake solution containing 0.1% BSA.

rat MCT1 = biological target: T4, rat MCT1 (Rattus norvegicus, UniProt P53987); settings: data not shown
T4 sequence (P53987 1-494): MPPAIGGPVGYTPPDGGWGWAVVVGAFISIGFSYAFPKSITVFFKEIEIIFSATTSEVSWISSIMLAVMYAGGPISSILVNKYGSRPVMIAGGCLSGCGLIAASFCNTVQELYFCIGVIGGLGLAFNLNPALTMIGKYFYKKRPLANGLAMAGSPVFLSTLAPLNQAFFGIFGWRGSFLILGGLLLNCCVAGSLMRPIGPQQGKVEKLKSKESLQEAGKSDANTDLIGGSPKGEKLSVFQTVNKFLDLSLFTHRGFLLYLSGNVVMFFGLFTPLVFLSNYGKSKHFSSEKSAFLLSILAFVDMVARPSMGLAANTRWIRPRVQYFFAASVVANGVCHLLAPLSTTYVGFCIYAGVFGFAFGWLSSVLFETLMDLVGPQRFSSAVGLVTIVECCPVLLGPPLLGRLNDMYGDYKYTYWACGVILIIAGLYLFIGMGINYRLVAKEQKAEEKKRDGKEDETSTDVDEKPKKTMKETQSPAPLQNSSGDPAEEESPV

MCT8 [4] = biological target: T3, MCT8; assay: Transport kinetics of MCT8-mediated iodothyronine uptake in oocytes (Michaelis-Menten); design: dose or concentration left out as unconfirmed; settings: net transport
Experimental: Apparent Km values were calculated by fitting the plot of uptake rate (v) versus ligand concentration (5) to the Michaelis Menten equation: v=Vmax/(1+Km/S), wherein Vmax is the maximum uptake rate, and Km the Michaelis constant. Calculations were performed using the Slide Write Plus program version 5.01 (Advanced Graphics Software).

MCT8 [5] = biological target: T3, MCT8; assay: Uptake and metabolism (sulfation) of rT3 in MCT8 cRNA-injected oocytes; assay type: cell-based; design: the stop codon of MCT8 was removed by performing PCR using the same sense primer as above; expressed in transfected cells; host or cells: Xenopus laevis oocytes injected with cRNA transcribed from pGEM-HeJuel; settings: 10 nM rT3, 2-60 min, 25 C
Experimental: Analysis of rT3 metabolism in oocytes—Groups of 10 oocytes were incubated for 2-60 mm at 25 C with 10 nM ['25IIrTa. After incubation, medium was collected, and 2 groups of 5 oocytes were counted separately and homogenized in 0.1 ml 0.1 M NaOH as described before (25). Lysates were cleared by centrifugation. Lysates (in duplicate) and incubation media were acidified with 0.1 M HCl and analyzed by Sephadex LH-20 chromatography (21). The different products were successively eluted with 0.1 M HCl (iodide), water (conjugates), and 1% NH4OH in ethanol (iodothyronines).
Metabolism of rT3—Previous studies have shown that X. laevis oocytes actively metabolize rT3 by sulfation. Since sulfotransferases are located intracellularly, we have used this property to investigate rT3 internalization by oocytes. […] At several time points, uninjected and MCT8 cRNA-injected oocytes are homogenized, and the homogenates and medium samples are analyzed for rT3 and rT3 sulfate (rT3S) content. It is shown that already after 2 mm of incubation, rT3S is formed intracellularly in the MCT8 cRNA-injected oocytes. After 10 mm of incubation, release of rT3S into the medium is observed. The production rate of rT3S is much higher in MCT8 cRNA-injected oocytes than in uninjected cells.

[6] = labeled T4 10 nm, inhibitor 100 μM, MCT8 cRNA-injected oocytes
[7] = labeled T4 10 nm, inhibitor 10 μM, MCT8 cRNA-injected oocytes

Row | Compound | Inhibition of labeled T4 and T3 uptake by MCT8 (in words) (MCT8 [2]) | Substrate specificity: transport by MCT8 (in words) (MCT8 [3]) | further results
1 | O=C1OC(c2ccc(O)c(S(=O)(=O)O)c2)(c2ccc(O)c(S(=O)(=O)O)c2)c2c(Br)c(Br)c(Br)c(Br)c21 [BSP, bromosulfophthalein] | potent inhibitor | – | % inhibition ± SEM of uptake of T3 (MCT8 [1]; inhibitor 100 μM): 81 ± 1%; Km (rat oatp1): 1.5 µM; % inhibition ± SEM of uptake of T4 (MCT8 [2]; [6]): 94 ± 2%
2 | O=C(CBr)N[C@@H](Cc1cc(I)c(Oc2ccc(O)c(I)c2)c(I)c1)C(=O)O [BrAcT3, N-bromoacetyl-3,3′,5-triiodothyronine] | potently inhibited | – | inhibition at 10 µM (MCT8 [2]; labeled T4 10 nm, inhibitor 10 μM, MCT8 cRNA-injected oocytes, read-out: % inhibition ± SEM of uptake of T4): 90 ± 3%; inhibition at 10 µM (MCT8 [2]; read-out: % inhibition ± SEM of uptake of T3): 67 ± 1%
3 | N[C@H](Cc1cc(I)c(Oc2ccc(O)c(I)c2)c(I)c1)C(=O)O [D-T3] | potently inhibited | – | % inhibition ± SEM of uptake of T3 (MCT8 [1]; inhibitor 10 μM): 24 ± 5%; % inhibition ± SEM of uptake of T4 (MCT8 [2]; [7]): 72 ± 3%
4 | N[C@H](Cc1cc(I)c(Oc2cc(I)c(O)c(I)c2)c(I)c1)C(=O)O [D-T4] | potently inhibited | – | % inhibition ± SEM of uptake of T3 (MCT8 [1]; inhibitor 10 μM): 21 ± 5%; % inhibition ± SEM of uptake of T4 (MCT8 [2]; [7]): 76 ± 7%
5 | CC(C)C[C@H](N)C(=O)O [Leu] | – | not transported | –
6 | N[C@@H](Cc1ccccc1)C(=O)O [Phe] | – | not transported | –
7 | N[C@@H](Cc1ccc(Oc2ccc(O)c(I)c2)c(I)c1)C(=O)O [T2, 3,3′-diiodothyronine] | – | rapid uptake | –
8 | NS(=O)(=O)O [T4NS] | – | not transported | –
9 | N[C@@H](Cc1cc(I)c(Oc2cc(I)c(OS(=O)(=O)O)c(I)c2)c(I)c1)C(=O)O [T4S] | – | not transported | –
10 | N[C@@H](Cc1c[nH]c2ccccc12)C(=O)O [Trp] | hardly affected | not transported | % inhibition ± SEM of uptake of T3 (MCT8 [1]; inhibitor 100 μM): 0 ± 7%; % inhibition ± SEM of uptake of T4 (MCT8 [2]; [6]): 22 ± 6%
11 | N[C@@H](Cc1ccc(O)cc1)C(=O)O [Tyr] | hardly affected | not transported | % inhibition ± SEM of uptake of T3 (MCT8 [1]; inhibitor 100 μM): 0 ± 9%; % inhibition ± SEM of uptake of T4 (MCT8 [2]; [6]): 37 ± 6%
12 | CC(O)C(=O)O (centres unmarked) [lactate] | – | unable to demonstrate any transport | Transport in rat MCT1 cRNA-injected oocytes compared to control oocytes (in words) (rat MCT1): greatly stimulated
13 | CCCN(CCC)S(=O)(=O)c1ccc(C(=O)O)cc1 [probenecid] | weak effects | – | –
14 | N[C@@H](Cc1ccc(Oc2cc(I)c(O)c(I)c2)c(I)c1)C(=O)O [rT3, 3,3′,5′-triiodothyronine] | – | rapid uptake | Saturability of transport by MCT8 (MCT8 [4]): saturable; Production rate of rT3S in MCT8 cRNA-injected oocytes versus uninjected cells (MCT8 [5]): much higher
